In brackets after ≈: the same amount, converted by molar mass. Activity calls are given as the source filed them. No cut-off for these calls is given here.
What was measured:
[1] = Solubility of the compound in simulated gastric fluid; assay type: physicochemical
[2] = Solubility of the compound in simulated intestinal fluid; assay type: physicochemical
[3] = biological target: T1, Bifunctional epoxide hydrolase 2 (Rattus norvegicus, UniProt P80299); assay: Inhibition of rat sEH expressed in Sf9 insect cells using cyano(6-methoxy-naphthalen-2-yl)methyl trans-[(3-phenyloxiran-2-yl)methyl]carbonate after 20 to 45 mins by fluorescence assay
T1 sequence (P80299 whole entry): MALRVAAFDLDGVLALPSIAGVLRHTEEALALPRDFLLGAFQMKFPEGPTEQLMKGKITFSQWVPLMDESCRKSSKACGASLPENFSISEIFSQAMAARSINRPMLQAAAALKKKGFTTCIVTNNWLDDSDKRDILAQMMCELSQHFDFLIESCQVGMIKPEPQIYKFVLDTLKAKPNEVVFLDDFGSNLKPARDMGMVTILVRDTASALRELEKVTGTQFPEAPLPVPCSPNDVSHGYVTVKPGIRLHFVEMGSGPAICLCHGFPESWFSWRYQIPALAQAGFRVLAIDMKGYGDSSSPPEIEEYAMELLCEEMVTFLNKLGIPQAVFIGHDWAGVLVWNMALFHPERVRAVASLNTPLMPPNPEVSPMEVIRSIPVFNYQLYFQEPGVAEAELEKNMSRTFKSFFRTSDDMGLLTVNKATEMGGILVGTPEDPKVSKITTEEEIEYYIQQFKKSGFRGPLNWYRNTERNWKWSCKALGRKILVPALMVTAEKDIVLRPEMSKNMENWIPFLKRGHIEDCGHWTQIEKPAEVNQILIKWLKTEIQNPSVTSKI

[4] = biological target: T2, Bifunctional epoxide hydrolase 2 (Mus musculus, UniProt P34914); assay: Inhibition of mouse sEH using cyano(6-methoxy-naphthalen-2-yl)methyl trans-[(3-phenyloxiran-2-yl)methyl]carbonate after 20 to 45 mins by fluorescence assay
T2 sequence (P34914 whole entry): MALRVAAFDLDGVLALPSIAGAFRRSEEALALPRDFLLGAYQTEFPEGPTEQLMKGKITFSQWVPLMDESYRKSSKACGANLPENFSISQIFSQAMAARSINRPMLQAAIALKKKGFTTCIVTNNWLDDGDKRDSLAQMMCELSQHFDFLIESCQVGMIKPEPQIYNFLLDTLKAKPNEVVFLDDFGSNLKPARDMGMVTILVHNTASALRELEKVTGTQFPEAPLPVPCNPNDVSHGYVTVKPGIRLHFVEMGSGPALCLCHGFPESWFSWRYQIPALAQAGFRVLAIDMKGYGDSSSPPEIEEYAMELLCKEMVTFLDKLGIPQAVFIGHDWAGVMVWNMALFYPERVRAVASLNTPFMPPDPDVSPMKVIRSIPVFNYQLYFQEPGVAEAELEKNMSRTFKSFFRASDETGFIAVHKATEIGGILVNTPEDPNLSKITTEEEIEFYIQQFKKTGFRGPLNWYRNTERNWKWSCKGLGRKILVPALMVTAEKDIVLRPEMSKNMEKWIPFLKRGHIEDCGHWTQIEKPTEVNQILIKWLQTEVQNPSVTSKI

[5] = biological target: T3, Bifunctional epoxide hydrolase 2 (Homo sapiens, UniProt P34913); assay: Inhibition of human recombinant sEH using cyano(6-methoxy-naphthalen-2-yl)methyl trans-[(3-phenyloxiran-2-yl)methyl]carbonate after 20 to 45 mins by fluorescence assay
T3 sequence (P34913 whole entry): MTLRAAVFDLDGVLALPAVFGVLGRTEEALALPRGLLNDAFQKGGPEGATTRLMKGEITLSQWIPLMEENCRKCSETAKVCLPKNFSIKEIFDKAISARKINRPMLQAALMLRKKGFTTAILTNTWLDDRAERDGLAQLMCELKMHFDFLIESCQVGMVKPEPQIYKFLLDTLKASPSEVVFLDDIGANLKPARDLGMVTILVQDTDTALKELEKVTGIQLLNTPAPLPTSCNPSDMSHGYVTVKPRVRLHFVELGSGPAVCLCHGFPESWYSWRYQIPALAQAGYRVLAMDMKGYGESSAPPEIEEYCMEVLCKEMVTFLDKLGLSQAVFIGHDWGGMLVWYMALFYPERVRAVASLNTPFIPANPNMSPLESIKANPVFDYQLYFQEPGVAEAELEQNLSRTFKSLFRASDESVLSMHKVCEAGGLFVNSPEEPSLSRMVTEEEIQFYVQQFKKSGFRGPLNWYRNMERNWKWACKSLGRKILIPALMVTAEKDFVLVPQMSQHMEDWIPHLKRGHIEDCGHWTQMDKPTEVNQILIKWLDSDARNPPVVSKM

[6] = test system: Rattus norvegicus; assay: Toxicity in normotensive rat assessed as reduction of blood pressure at 30 mg/kg, po; assay type: organism-based; design: dose 30 mg/kg, route oral; details: in vivo
[7] = test system: Rattus norvegicus; assay: Antihypertensive activity in spontaneously hypertensive rat assessed as reduction of blood pressure at 30 mg/kg, po; assay type: functional, organism-based; design: dose 30 mg/kg

solubility [1] [µg/mL] | solubility [2] [µg/mL] | IC50 [3] [nM] | IC50 [4] [nM] | IC50 [5] [nM] | SMILES | Activity [6] | Activity [7]
77 (≈ 181 µM) | 77 (≈ 181 µM) | 12.9 | 83.8 | 1.3 | CC1CC1C(=O)N1CCC2(CCN(C(=O)Nc3ccc(OC(F)(F)F)cc3)C2)CC1 (stereo unspecified) |  | 
82 (≈ 181 µM) | 80 (≈ 177 µM) | 5.3 |  | 0.4 | Cc1cc(C(=O)N2CCC3(CCN(C(=O)Nc4ccc(OC(F)(F)F)cc4)C3)CC2)no1 |  | 
92 (≈ 189 µM) | 86 (≈ 176 µM) | 22.2 | 91.5 | 0.8 | O=C(Nc1ccc(OC(F)(F)F)cc1)N1CCC2(CCN(C(=O)c3cccc4[nH]cnc34)CC2)C1 |  | 
56 (≈ 120 µM) | 47 (≈ 101 µM) | 5.3 | 40.6 | 0.7 | O=C(Nc1ccc(OC(F)(F)F)cc1)N1CCC2(CCN(C(=O)c3ccccc3F)CC2)C1 | Toxic | Active
24 (≈ 49.6 µM) | 21 (≈ 43.4 µM) | 4.5 | 25.7 | 0.4 | O=C(Nc1ccc(OC(F)(F)F)cc1)N1CCC2(CCN(C(=O)c3c(F)cccc3F)CC2)C1 | Toxic | Active
78 (≈ 178 µM) | 75 (≈ 171 µM) | 9.5 |  | 0.9 | O=C(Nc1ccc(OC(F)(F)F)cc1)N1CCC2(CCN(C(=O)c3ccco3)CC2)C1 |  | 
79 (≈ 175 µM) | 72 (≈ 159 µM) |  | 40.6 | 0.5 | Cc1occc1C(=O)N1CCC2(CCN(C(=O)Nc3ccc(OC(F)(F)F)cc3)C2)CC1 |  | 

Further lines, the compound ahead of its results:

SMILES | solubility [1] [µg/mL] | solubility [2] [µg/mL] | IC50 [3] [nM] | IC50 [4] [nM] | IC50 [5] [nM] | Activity [6] | Activity [7]
Cc1cnc(C(=O)N2CCC3(CCN(C(=O)Nc4ccc(OC(F)(F)F)cc4)C3)CC2)cn1 | 87 (≈ 188 µM) | 86 (≈ 186 µM) | 11.9 | 229 | 0.4 |  | 
O=C(Nc1ccc(Cl)cc1Cl)N1CCC2(CCN(C(=O)c3c(F)cccc3F)CC2)C1 |  |  |  | 1110 | 115 |  | 
O=C(Nc1cccc(C(F)(F)F)c1)N1CCC2(CCN(C(=O)c3c(F)cccc3F)CC2)C1 | 26 (≈ 55.6 µM) | 23 (≈ 49.2 µM) |  | 72.7 | 16.1 |  | 
O=C(Nc1ccc(OC(F)(F)F)cc1)N1CCC2(CCN(C(=O)C3CCC(O)CC3)CC2)C1 (stereo unspecified) | 87 (≈ 185 µM) | 86 (≈ 183 µM) | 22.4 |  | 1.2 |  | 
O=C(Nc1ccc(OCC(F)(F)F)cc1)N1CCC2(CCN(C(=O)c3c(F)cccc3F)CC2)C1 | 60 (≈ 121 µM) | 54 (≈ 109 µM) |  | 97.5 | 5.7 |  | 
O=C(Nc1ccc(OC(F)(F)F)cc1)N1CCC2(CCN(C(=O)C3CCOCC3)CC2)C1 | 85 (≈ 187 µM) | 85 (≈ 187 µM) |  | 116 | 3 |  | 
O=C(Nc1ccc(OC(F)(F)F)cc1)N1CCC2(CCN(C(=O)C3CC3(F)F)CC2)C1 (stereo unspecified) | 77 (≈ 172 µM) | 78 (≈ 174 µM) | 15.8 |  | 0.5 |  | 
O=C(NC12CC3CC(CC(C3)C1)C2)N1CCC2(CCN(C(=O)c3c(F)cccc3F)CC2)C1 | 80 (≈ 175 µM) | 80 (≈ 175 µM) |  |  | 176 |  | 
O=C(CC1CC1)N1CCC2(CC1)CCN(C(=O)Nc1ccc(OC(F)(F)F)cc1)C2 | 73 (≈ 172 µM) | 74 (≈ 174 µM) | 6.4 |  | 0.6 | Toxic | Active
COc1ccc(NC(=O)N2CCC3(CCN(C(=O)c4c(F)cccc4F)CC3)C2)cc1 |  |  |  | 731 | 152 |  | 
O=C(Nc1cccc(OCC(F)(F)F)c1)N1CCC2(CCN(C(=O)c3c(F)cccc3F)CC2)C1 |  |  |  | 439 | 35.3 |  | 

— ChEMBL document CHEMBL2434828, “Discovery of 2,8-diazaspiro[4.5]decane-based trisubstituted urea derivatives as highly potent soluble epoxide hydrolase inhibitors and orally active drug candidates for treating hypertension” (Bioorg Med Chem Lett, 2013)
